Reference: publication PMC9271885 (eBioMedicine, 2022)
Several values for one entry are separate records, joined by “and”; a condition that tells them apart may be missing. Equal values may be shown once.

Assays:
[1] = Clinical course of the disease in infected hamsters (normalized weight, clinical signs); assay type: in vivo, Syrian hamsters
Protocol: Three-week-old female Syrian hamsters were provided by Janvier Labs (SPF status). Animals were maintained in ISOcage P - Bioexclusion System (Techniplast) with unlimited access to water/food and 14h/10h light/dark cycle. A wooden gnawing block and extra bedding material was provided as cage enrichment. Animals were weighed and monitored daily for the duration of the study to detect the appearance of any clinical signs of illness/suffering. General anesthesia was obtained with isoflurane (Isoflurin®, Axience). Euthanasia, which was also realized under general anesthesia, was performed by cervical dislocation.
Groups of 6 hamsters were intranasally infected with 10^4 TCID50 of virus. a Experimental timeline. b, f, j Viral replication in lung based on infectious titers (measured using a TCID50 assay) expressed in TCID50/g of lung (n=6 animals/group). c, g, k Viral replication in lung based on viral RNA yields (measured using an RT-qPCR assay) expressed in viral genome copies/g of lung (n=6 animals/group). d, h, l Plasma viral loads (measured using an RT-qPCR assay) are expressed in viral genome copies/mL of plasma (the dotted line indicates the detection threshold of the assay) (n=6 animals/group). e, i, m Clinical course of the disease (n=6 animals/group). Normalized weight at day n was calculated as follows: % of initial weight of the animal at day n. Data represent mean ± SD (Details in Supplementary Data 2).

SARS-CoV-2 = assay: Hamster model of SARS-CoV-2 infection, oral NTZ treatment (lung infectious titers, lung viral RNA yields, plasma viral loads); assay type: in vivo, Syrian hamsters; set-up: Lung Infectious titers / Plasmatic viral RNA yields / Lung Viral RNA yields: unit not given here; conditions: for Lung Infectious titers / Lung Viral RNA yields / Plasmatic viral RNA yields: inoculum 104 TCID50, Figure 3, individual animals
[2] = Nitazoxanide IN 2.8mg/kg/day TID, inoculum 104 TCID50, sacrifice day 3, Figure 5, individual animals
[3] = Nitazoxanide IN 2.8mg/kg/day TID, inoculum 104 TCID50, sacrifice day 3, Figure SF 2, individual animals
[4] = Nitazoxanide per os 500mg/kg/day BID, inoculum 104 TCID50, sacrifice day 3, Figure 3, individual animals
[5] = Nitazoxanide per os 500mg/kg/day BID, inoculum 104 TCID50, sacrifice day 5, Figure 3, individual animals
[6] = Nitazoxanide per os 750mg/kg/day BID, inoculum 104 TCID50, sacrifice day 3, Figure 3, individual animals
[7] = NTZ 500mg/kg/day BID oral for 3 days, 3 dpi
[8] = NTZ 500mg/kg/day BID oral for 4 days, 5 dpi
[9] = NTZ 750mg/kg/day TID oral for 3 days, 3 dpi
[10] = Nitazoxanide per os 500mg/kg/day BID, sacrifice day 3
[11] = Nitazoxanide per os 500mg/kg/day BID, sacrifice day 5
[12] = Nitazoxanide per os 750mg/kg/day BID, sacrifice day 3

## CC(=O)Oc1ccccc1C(=O)Nc1ncc([N+](=O)[O-])s1 [NTZ, Nitazoxanide]
[1]; NTZ 2.8mg/kg/day TID intranasal, 1 to 3 dpi, first experiment
  mean normalized weight vs untreated animals: significantly lower than that of untreated animals
[1]; NTZ 2.8mg/kg/day TID intranasal, 1 to 3 dpi, repeated experiment
  mean normalized weight vs untreated animals: significantly lower than that of untreated animals
[1]; NTZ 500mg/kg/day BID oral for 3 days, at 3 dpi
  mean normalized weight vs untreated animals: significantly lower than that of untreated animals
[1]; NTZ 500mg/kg/day BID oral for 4 days, followed to 5 dpi
  clinical signs of illness/suffering compared to untreated animals: did not show any clinical signs of illness/suffering
[1]; NTZ 750mg/kg/day TID oral for 3 days, at 2 dpi
  mean normalized weight vs untreated animals: significantly lower than that of untreated animals
[1]; [2]
  Normalized weights Day 0: 100
  Normalized weights Day 1: 90.2 and 91.4 and 94.7 and 92.3 and 86.3 and 91.5
  Normalized weights Day 2: 81.4 and 83.1 and 86.9 and 88.1 and 80.0 and 82.4
  Normalized weights Day 3: 70.4
[1]; [3]
  Normalized weights Day 0: 100
  Normalized weights Day 1: 92.6 and 97.1 and 95.9 and 101.1 and 97.4 and 94.0
  Normalized weights Day 2: 84.7 and 91.2 and 89.0 and 92.2 and 87.0 and 85.8
[1]; [4]
  Normalized weights Day 0: 100
  Normalized weights Day 1: 103.3 and 103.7 and 101.9 and 97.1 and 103.5 and 104.5
  Normalized weights Day 2: 100.2 and 95.2 and 98.6 and 92.0 and 97.9 and 99.6
  Normalized weights Day 3: 97.9 and 94.1 and 93.4 and 93.2
[1]; [5]
  Normalized weights Day 0: 100
  Normalized weights Day 1: 103.8 and 103.9 and 104.9 and 104.4 and 104.6 and 102.8
  Normalized weights Day 2: 96.9 and 95.0 and 102.9 and 95.3 and 100.2
  Normalized weights Day 3: 96.2 and 96.1
  Normalized weights Day 4: 83.8
  Normalized weights Day 5: 98.6 and 90.9 and 91.2 and 79.5 and 92.9
[1]; [6]
  Normalized weights Day 0: 100
  Normalized weights Day 1: 102.2 and 103.1 and 105.8 and 99.4 and 106.0 and 101.2
  Normalized weights Day 2: 95.2 and 96.5 and 95.6 and 90.1 and 90.2
  Normalized weights Day 3: 92.7
[1]; histopathology experiment, NTZ 500mg/kg/day BID oral, at 3 dpi
  mean normalized weight vs untreated animals: significantly lower than that of untreated animals
[1]; infected hamsters, nitazoxanide 500mg/kg/day per os BID, Day 0, individual animals
  Normalized weights Day 0: 100
[1]; infected hamsters, nitazoxanide 500mg/kg/day per os BID, Day 1, individual animals
  Normalized weights Day 1: 100.5 and 102.7 and 103.7 and 103.5
[1]; infected hamsters, nitazoxanide 500mg/kg/day per os BID, Day 2, individual animals
  Normalized weights Day 2: 94.1 and 99.3 and 98.2
[1]; infected hamsters, nitazoxanide 500mg/kg/day per os BID, Day 3, individual animals
  Normalized weights Day 3: 92.9 and 96.2
[1]; infected hamsters, nitazoxanide 500mg/kg/day per os BID, Day 4, individual animals
  Normalized weights Day 4: 86.9
[1]; infected hamsters, nitazoxanide 500mg/kg/day per os BID, Day 5, individual animals
  Normalized weights Day 5: 90.1 and 88.3 and 85.4 and 93.9
SARS-CoV-2; [7]
  infectious titers in clarified lung homogenates vs untreated animals: no significant differences
  viral RNA yields in clarified lung homogenates vs untreated animals: no significant differences
  viral RNA yields in plasma vs untreated animals: No significant difference
SARS-CoV-2; [8]
  infectious titers in clarified lung homogenates vs untreated animals: no significant reduction
  viral RNA yields in clarified lung homogenates vs untreated animals: no significant reduction
  viral RNA yields in plasma vs untreated animals: no significant reduction
SARS-CoV-2; [9]
  infectious titers in clarified lung homogenates vs untreated animals: no significant differences
  viral RNA yields in clarified lung homogenates vs untreated animals: no significant differences
  viral RNA yields in plasma vs untreated animals: No significant difference
SARS-CoV-2; [10]
  Lung Infectious titers: 8.038 and 8.250 and 7.442 and 7.772 and 7.773 and 7.077
  Lung Viral RNA yields: 8.641
  Plasmatic viral RNA yields: 5.553 and 4.360 and 4.045 and 4.724 and 5.043 and 5.205
SARS-CoV-2; [11]
  Lung Viral RNA yields: 7.115 and 6.597 and 6.910
  Plasmatic viral RNA yields: 3.987 and 3.600 and 3.442 and 4.487 and 3.519
SARS-CoV-2; Nitazoxanide per os 500mg/kg/day BID, sacrifice day 5, § : considered at 60 TCID50/mL (detection threshold)
  Lung Infectious titers: ≤ 2.486 § and 4.354 and 4.491 and 5.007 and 3.086
SARS-CoV-2; [12]
  Lung Infectious titers: 7.345 and 6.869 and 7.090 and 6.311 and 7.103 and 7.069
  Lung Viral RNA yields: 8.692
  Plasmatic viral RNA yields: 3.193 and 2.818 and 5.191 and 4.129 and 4.008 and 4.113
